“Also recorded” adds a separate entry of the source.

This note sets out measurements from patent US9511111B2, “Methods for the treatment of X-linked hypophosphatemia and related disorders” (WISCONSIN ALUMNI RESEARCH FOUNDATION, priority 2010, dated 2016).

Test [1] relates to hyp-mice. Nature of the test: In vivo daily ip injection of D6R in hyp mice (murine model of XLH). On the set-up: species or system mouse. Here is the method: In vivo injection of D6R in normal and hyp mice: 3-week old normal and hyp mice were randomly separated into two groups for each strain. One group of mice received daily ip injection of saline. […] Blood samples were obtained every 3 days via retro-orbital bleedings. At the end of the in vivo injection period, the animals were euthanized with an overdose of sodium pentobarbital (65 mg/kg). The final blood sample was collected by cardiac puncture for large volume of serum preparation. Kidney and femoral bone samples were collected for total RNA and protein extractions.
(§1) Biochemistry measurements: Serum Pi levels were measured using Phosphorus Liqui-UV kit from Stanbio Laboratory (Boerne, Tex.). Serum Ca levels were measured using calcium Liquicolor kit from Stanbio following the manufacturer's protocols. Serum intact FGF-23 was measured employing a FGF-23 ELISA kit obtained from Kainos Laboratories, Japan. Serum C-terminal FGF-23 was measured using ELISA kit from Immunotopics, CA.
Real-time RT-PCR for mRNA expression: Total RNA was isolated from kidney samples and femurs. The femurs were trimmed of all fat, homogenized into fine powder in liquid nitrogen using porcelain motor and pestle. Total RNA was then extracted using TRIzol Reagent (Invitrogen, CA) following the manufacturer's protocol. Kidney samples were rinsed free of blood using ice-cold PBS buffer. Then the kidney was homogenized in TRIzol Reagent using mortor and pestle. Then, the renal total RNA was isolated following the manufacturer's protocol. RT reactions were performed using Bio-Rad iScript cDNA synthesis kit (Bio-Rad, CA) with poly-A primers. FGF-23 mRNA, as well as Npt2 mRNA and 25(OH)D3-1α-hydroxylase mRNA were quantitated by real-time PCR using gene specific primers.
Western blot for protein expression: Kidney proteins were isolated using sucrose buffer containing 20 mM HEPES, 1 mM EDTA, 255 mM sucrose, 0.4 mM phenylmethylsulfonyl fluoride, and 2 μg/ml leupeptin. The homogenate was centrifuged at 1,500 g for 15 min, and the pellet containing mitochondrial protein, including 25(OH)D-1α-hydroxylase, was re-suspended in the same buffer, aliquoted, and stored at −80° C. until use. The supernatant that contained the plasma membrane protein obtained after centrifugation was also collected for the measurement of Npt2 protein. Bone samples were homogenized into fine powder in liquid nitrogen. Protein contents were isolated using T-PER tissue protein extraction reagent with Halt protease inhibitor cocktail (Thermo Scientific, Rockford, Ill.).
A 20 μg aliquot of the respective protein extracts was electrophoresed in 10% SDS-PAGE gel and transferred onto a nitrocellulose membrane. The membrane was then washed and probed with specific antibodies and subsequently with specific secondary antibodies conjugated with HRP. To quantitate the immunoblotting signal, 6 ml of chemiluminescence detection solution (ECL plus, Amersham, UK) was added, and the signal was detected directly by the fluorescent scanner (Storm 860, Amersham, UK). Band density was analyzed using ImageQuant 5.2 software (Molecular Dynamics, Sunnyvale, Calif.). The antibody was then removed by incubating the membrane in reprobing solution (62.5 mM Tris-HCl, 2% SDS, and 100 mM 2-mercaptoethanol, pH 6.7) for 30 min, 50° C. The membrane was then blocked and probed with specific anti-β-actin antibody to verify the loading equivalence among samples.
High-resolution radiography (x-ray) for the femus: mouse femurs were extracted and incubated in lysis buffer (2×SSC, 0.2% SDS, 10 mM EDTA, 10 mg/ml proteinase K) for 2 days. After the surrounding muscles were digested, the femurs were washed in PBS buffer and X-rayed on a Faxitron model MX-20 Specimen Radiography System with a digital camera attached (Faxitron x-ray Corp., Buffalo Grove, Ill.). […]

Test [2] concerns SPC2. In words: SPC2 activity in hTert osteoblasts (MOB) in culture. To be noted: D6R 50 μM, p<0.01. Format: cell-based. Here is the method: (§2) The dose-dependent effects of D6R (0-200 μM) on SPC2 activity in hTert osteoblasts (MOB) and MC3T3 osteoblasts in culture were also examined. […] Treatment of MC3T3 cells for a similar period likewise increased enzyme activity at 200 μM (124±14 vs 171±7 fluorescent units/min; p<0.05). Treatment of the MOB cell line with D6R, and the resulting increase in SPC2 enzyme activity decreased Fgf23 mRNA expression (1.0±0.7 vs 0.2±0.1 fold; p<0.001).

Test [3] concerns normal mice. In words: In vivo daily ip injection of D6R in normal mice. The arrangement: species or system mouse. The note with it: D6R treated, daily ip for 5 weeks, saline 200 ± 15.5, p<0.001. As to the method: In vivo injection of D6R in normal and hyp mice: 3-week old normal and hyp mice were randomly separated into two groups for each strain. One group of mice received daily ip injection of saline. The other group of mice received daily ip injection of D6R 1.5 μg/kg/day for 5 weeks. Blood samples were obtained every 3 days via retro-orbital bleedings. At the end of the in vivo injection period, the animals were euthanized with an overdose of sodium pentobarbital (65 mg/kg). The final blood sample was collected by cardiac puncture for large volume of serum preparation. Kidney and femoral bone samples were collected for total RNA and protein extractions.
as §1

The test system of test [4] is MOB cells (hTert osteoblasts). Nature of the test: mRNA expression in MOB cell line treated with D6R. It counts as cell-based. Here is the method: as §2
The subject of test [5] is SPC2. In words: SPC2 activity in MC3T3 osteoblasts in culture. It counts as cell-based. The note with it: MC3T3 cells, D6R 200 μM, similar period (48 hours); control 124±14; p<0.05. As to the method: as §2

In the case of hexa-D-arginine [D6R], in test [1] (D6R treated hyp-mice, FIGS. 12-13), the mineral apposition rate result is on record as “normalization; also recorded: restoration of normal bone mineral apposition rate”. Besides, in test [1] (Hyp-mice, D6R treated, daily ip for 5 weeks, saline 2126 ± 281, p<0.001), the “serum FGF23 concentration” value was found to be 1682 ± 191. Besides, in test [1] (hyp mouse), the “bone modeling (long bone circumference)” value is reported as “decreased to normal”, the “length of the long bones in the extremities” value is “increased” and the “renal 25(OH)D3-1α-hydroxylase activity (translational abnormality)” value is recorded as “normalized”. The “degradation of serum FGF23” value in test [1] (hyp mouse, D6R treatment, FIG. 3B) is given as “increased”. Besides, the “degradation of intact FGF23 in hyp-mouse bone” value in test [1] (hyp mouse, ip x 5 weeks) is reported as “enhanced”. For the same substance, the “Fgf23 mRNA expression” value in test [1] (hyp mouse, ip x 5 weeks, FIG. 3A) is recorded as “decreased”. In addition, the “Npt2a mRNA” value in test [1] (hyp mouse, kidney, FIGS. 2A-B) is listed as “normalization”. Also, the “renal phosphate wasting and serum phosphorus levels” value in test [1] (hyp mouse, FIG. 1) was “normalization”. The “Sost mRNA and the coded protein Sclerostin” value in test [1] (hyp mouse, FIG. 4) is “suppression”. Moreover, in test [1] (hyp mouse, FIG. 5), the “bone 7B2 mRNA expression” value is “stimulation”. Further, in test [1] (hyp mouse, FIG. 9), the bone density normalization entry is recorded as “increasing”. For the same substance, the “Osteoid surface/Bone surface (OS/BS)” value in test [1] (hyp mouse, FIG. 11A) is given as “decreasing”. Moreover, in test [1] (hyp mouse, FIG. 11B), the “Mineralized area/Total Area (MA/TA ratios)” value is given as “enhancing”. Also, the rickets and osteomalacia result in test [1] (hyp mouse, FIGS. 6-13) is recorded as “cured”. In addition, in test [2] (control 121 ± 18), the “SPC2 activity, h-Tert osteoblasts” value is 329 ± 17 fluorescent units. In test [2] (hTert osteoblasts, 48 hours, control 121±18), this substance displayed an SPC2 activity of 329±17 fluorescent units/min. For the same substance, the “serum FGF23 concentration” value in test [3] is listed as 120 ± 12.5. Further, the “Fgf23 mRNA expression” value in test [4] (MOB cell line treated with D6R, control 1.0±0.7, p<0.001) is 0.2±0.1 fold. The “SPC2 mRNA expression” value in test [4] (MOB cells treated with D6R) was “without alteration”. Moreover, the “7B2 mRNA expression” value in test [4] (MOB cells treated with D6R, control 1.0±0.2, p<0.001) amounted to 3.6±0.4 fold. Besides, the SPC2 enzyme activity in test [5] is reported as 171±7 fluorescent units/min.
